Legend:
[1] = system: SK-OV-3; test: Growth inhibition of human SKOV3 cells assessed as cell growth at 10 uM after 48 hrs by sulforhodamine B assay relative to control; type: functional; details: SK-OV-3, 48 h, read-out: Activity
[2] = system: OVCAR-4; test: Growth inhibition of human OVCAR4 cells assessed as cell growth at 10 uM after 48 hrs by sulforhodamine B assay relative to control; type: functional; details: OVCAR-4, 48 h, read-out: Activity
[3] = system: OVCAR-3; test: Growth inhibition of human OVCAR3 cells assessed as cell growth at 10 uM after 48 hrs by sulforhodamine B assay relative to control; type: functional; details: OVCAR-3, 48 h, read-out: Activity
[4] = system: MDA-MB-435; test: Growth inhibition of human MDA-MB-435 cells assessed as cell growth at 10 uM after 48 hrs by sulforhodamine B assay relative to control; type: functional; details: MDA-MB-435, 48 h, read-out: Activity
[5] = system: M14; test: Growth inhibition of human M14 cells assessed as cell growth at 10 uM after 48 hrs by sulforhodamine B assay relative to control; type: functional; details: M14, 48 h, read-out: Activity
[6] = system: LOX IMVI; test: Growth inhibition of human LOXIMVI cells assessed as cell growth at 10 uM after 48 hrs by sulforhodamine B assay relative to control; type: functional; details: read-out: Activity
[7] = system: Malme-3M; test: Growth inhibition of human MALME-3M cells assessed as cell growth at 10 uM after 48 hrs by sulforhodamine B assay relative to control; type: functional; details: read-out: Activity
[8] = system: KM12; test: Growth inhibition of human KM12 cells assessed as cell growth at 10 uM after 48 hrs by sulforhodamine B assay relative to control; type: functional; details: KM12, 48 h, read-out: Activity
[9] = system: NCI-H522; test: Growth inhibition of human NCI-H522 cells assessed as cell growth at 10 uM after 48 hrs by sulforhodamine B assay relative to control; type: functional; details: NCI-H522, 48 h, read-out: Activity
[10] = Growth inhibition of human EKVX cells assessed as cell growth at 10 uM after 48 hrs by sulforhodamine B assay relative to control; type: functional; details: read-out: Activity
[11] = system: A549; test: Growth inhibition of human A549/ATCC cells assessed as cell growth at 10 uM after 48 hrs by sulforhodamine B assay relative to control; type: functional; details: A549, 48 h, read-out: Activity
[12] = system: RPMI-8226; test: Growth inhibition of human RPMI8226 cells assessed as cell growth at 10 uM after 48 hrs by sulforhodamine B assay relative to control; type: functional; details: RPMI-8226, 48 h, read-out: Activity
[13] = system: MOLT-4; test: Growth inhibition of human MOLT4 cells assessed as cell growth at 10 uM after 48 hrs by sulforhodamine B assay relative to control; type: functional; details: MOLT-4, 48 h, read-out: Activity
[14] = system: MT4; test: Cytotoxicity against human MT4 cells; type: functional, cell-based
[15] = system: MDA-MB-468; test: Growth inhibition of human MDA-MB-468 cells after 48 hrs by sulforhodamine B assay; type: functional; details: MDA-MB-468, 48 h
[16] = system: T47D; test: Growth inhibition of human T47D cells after 48 hrs by sulforhodamine B assay; type: functional
[17] = system: RXF 393; test: Growth inhibition of human RXF393 cells after 48 hrs by sulforhodamine B assay; type: functional; details: RXF 393, 48 h
[18] = system: SK-OV-3; test: Growth inhibition of human SKOV3 cells after 48 hrs by sulforhodamine B assay; type: functional; details: SK-OV-3, 48 h
[19] = system: OVCAR-8; test: Growth inhibition of human OVCAR8 cells after 48 hrs by sulforhodamine B assay; type: functional; details: OVCAR-8, 48 h
[20] = system: OVCAR-4; test: Growth inhibition of human OVCAR4 cells after 48 hrs by sulforhodamine B assay; type: functional; details: OVCAR-4, 48 h
[21] = system: OVCAR-3; test: Growth inhibition of human OVCAR3 cells after 48 hrs by sulforhodamine B assay; type: functional; details: OVCAR-3, 48 h
[22] = system: UACC-62; test: Growth inhibition of human UACC62 cells after 48 hrs by sulforhodamine B assay; type: functional; details: UACC-62, 48 h
[23] = system: M14; test: Growth inhibition of human M14 cells after 48 hrs by sulforhodamine B assay; type: functional; details: M14, 48 h
[24] = system: Malme-3M; test: Growth inhibition of human MALME-3M cells after 48 hrs by sulforhodamine B assay; type: functional
[25] = system: SNB-19; test: Growth inhibition of human SNB19 cells after 48 hrs by sulforhodamine B assay; type: functional; details: SNB-19, 48 h
[26] = system: NCI-H460; test: Growth inhibition of human NCI-H460 cells after 48 hrs by sulforhodamine B assay; type: functional; details: NCI-H460, 48 h
[27] = system: NCI-H322M; test: Growth inhibition of human NCI-H322M cells after 48 hrs by sulforhodamine B assay; type: functional
[28] = Growth inhibition of human EKVX cells after 48 hrs by sulforhodamine B assay; type: functional
[29] = system: SR; test: Growth inhibition of human SR cells after 48 hrs by sulforhodamine B assay; type: functional
[30] = system: MDA-MB-468; test: Growth inhibition of human MDA-MB-468 cells assessed as cell growth at 10 uM after 48 hrs by sulforhodamine B assay relative to control; type: functional; details: MDA-MB-468, 48 h, read-out: Activity
[31] = system: T47D; test: Growth inhibition of human T47D cells assessed as cell growth at 10 uM after 48 hrs by sulforhodamine B assay relative to control; type: functional; details: read-out: Activity
[32] = system: BT-549; test: Growth inhibition of human BT549 cells assessed as cell growth at 10 uM after 48 hrs by sulforhodamine B assay relative to control; type: functional; details: BT-549, 48 h, read-out: Activity
[33] = Growth inhibition of human Hs 578T cells assessed as cell growth at 10 uM after 48 hrs by sulforhodamine B assay relative to control; type: functional; details: read-out: Activity
[34] = system: MDA-MB-231; test: Growth inhibition of human MDA-MB-231 cells assessed as cell growth at 10 uM after 48 hrs by sulforhodamine B assay relative to control; type: functional; details: MDA-MB-231, 48 h, read-out: Activity
[35] = system: TK-10; test: Growth inhibition of human TK10 cells assessed as cell growth at 10 uM after 48 hrs by sulforhodamine B assay relative to control; type: functional; details: TK-10, 48 h, read-out: Activity
[36] = read-out: LC50 (the source's name)

Q: Which results are given for `CN(C)CCNc1nc2c(c(=N)n1-c1ccccc1)c(=S)n(-c1ccccc1)c(=S)n2-c1ccccc1`?
A: growth at 10 µM [1]: 76.3%; growth at 10 µM [2]: 41.7%; growth at 10 µM [3]: -48.7%; growth at 10 µM [4]: -64.5%; growth at 10 µM [5]: -84.4%; growth at 10 µM [6]: -61.4%; growth at 10 µM [7]: -89.5%; growth at 10 µM [8]: 0.2%; growth at 10 µM [9]: 3.16%; growth at 10 µM [10]: 39.8%; growth at 10 µM [11]: 35.4%; growth at 10 µM [12]: -4.62%; growth at 10 µM [13]: 3.92%; IC50 [14]: 8.4 µM; GI50 [15]: 1.2 µM; LC50 (concentration killing 50% of cells) [15]: 6 µM; TGI [15]: 2.7 µM; GI50 [16]: 2.1 µM; LC50 [16]: 30.5 µM; TGI [16]: 5.4 µM; GI50 [17]: 1.2 µM; TGI [17]: 3.1 µM; CC50 [17, 36]: 8.1 µM; GI50 [18]: 10.3 µM; TGI [18]: 24.1 µM; CC50 [18, 36]: 56.7 µM; GI50 [19]: 4.1 µM; TGI [19]: 15.7 µM; CC50 [19, 36]: 58.7 µM; GI50 [20]: 3.1 µM; TGI [20]: 10.8 µM; GI50 [21]: 3 µM; LC50 [21]: 45.4 µM; TGI [21]: 12.5 µM; GI50 [22]: 1.8 µM; TGI [22]: 3.5 µM; CC50 [22, 36]: 6.6 µM; GI50 [23]: 1.8 µM; TGI [23]: 4.3 µM; CC50 [23, 36]: 89.1 µM; GI50 [24]: 2.6 µM; TGI [24]: 5 µM; CC50 [24, 36]: 9.5 µM; GI50 [25]: 4.9 µM; TGI [25]: 19 µM; CC50 [25, 36]: 50 µM; GI50 [26]: 3.2 µM; LC50 [26]: 61.2 µM; TGI [26]: 11.8 µM; GI50 [27]: 6.2 µM; TGI [27]: 20.7 µM; CC50 [27, 36]: 53.8 µM; GI50 [28]: 12.1 µM; TGI [28]: 32.2 µM; CC50 [28, 36]: 85.8 µM; GI50 [29]: 1.4 µM; LC50 [29]: 8.2 µM; TGI [29]: 3.3 µM; growth at 10 µM [30]: -34.6%; growth at 10 µM [31]: -19.4%; growth at 10 µM [32]: 4.45%; growth at 10 µM [33]: 12.3%; growth at 10 µM [34]: -13%; growth at 10 µM [35]: 47.7%

Source: ChEMBL document CHEMBL2440027, “Further SAR studies on bicyclic basic merbarone analogues as potent antiproliferative agents” (Bioorg Med Chem, 2013)
